Measured values taken from patent publication US9855320B2, “Angiogenin for treatment of glaucoma” (CHUNG-ANG UNIVERSITY INDUSTRY-ACADEMIC COOPERATION …, priority 2011, dated 2018).

Columns and labels:
[1] = test system: caspase-3; assay: Reverse transcription polymerase chain reaction on injured tissue of corneal chemical burn model, caspase-3; format: in vivo, rat; settings: third day and seventh day after keratoconjunctival chemical injury
Protocol: (§1) Three days, and 1, 2, 4, and 8 weeks after injuring, corneal opacity and neoangiogenesis level were assessed in consideration of images of anterior ocular segment, and on the third day and the seventh day, the respective conjunctiva damaged parts were collected and then subjected to a reverse transcription polymerase chain reaction to assay expression of IL-1a, TGF-β, SDF-1, and caspase-3.
(§2) Tissues obtained from chronic intraocular pressure increase model and corneal chemical burn model were frozen, and then cut into small parts by using a fine knife. The tissue parts were treated with 1 ml of TRI reagent (Molecular Research Center, Inc.) and then, tissue and cell were lysed by homogenizer. The respective implication cDNA […] 0.2 mM dNTP, 10×buffer, 10 pmols primer, and 0.2 U Taq polymerase were mixed to obtain a volume of 20 μl, and then, PCR thermal cycler (a machine for PCR) was used for reaction for 5 minutes at 95° C., 40 second at 94° C., 40 seconds at 48 to 64° C., 40 seconds (35 cycles) at 72° C., and 10 minutes at 72° C. The amplified polymerase chain reaction product was identified by 1% agarose gel electrophoresis. β actin was used as a positive control for the polymerase chain reaction, and relative expression morphs of a target gene with respect to β actin expression were compared. […]

[2] = test system: IL-1a; assay: Reverse transcription polymerase chain reaction on injured tissue of corneal chemical burn model, IL-1a; format: in vivo, rat; settings: third day and seventh day after keratoconjunctival chemical injury
Protocol: as §1, §2

[3] = test system: CD11b; assay: Reverse transcription polymerase chain reaction of CD11b in retinal tissue, chronic intraocular pressure increase model; format: in vivo; settings: seventh day after episcleral venous electric ablation, compared to the control and the normal rat group
Protocol: 0.05 cc/50 g of Tiletimine and Zolazepam-mixed medicament (Zoletil) and Xylazine (Rompum) were mixed at a ratio of 1:1 and then administered to 20 rats by intramuscular injection, thereby anesthetizing the rats. A limbus periphery was divided into four portions, each of which was then subjected to 2 mm dissection at an interval of 90 degrees, and then, two radial conjunctival excisions were performed on upper dissection periphery. […] After surgical isolation of vein, the vein was lifted up by using 3 mm-width spatula to be spaced apart from the peripheral tissue, and then, was subjected to electric ablation while being careful for the peripheral tissue not to have any thermal damage or any mechanical damage due to contact. Intraocular pressure was consecutively measured three or more times by using Tonopen (Solan, Fla., USA), and only reliable intraocular pressure values within 5 percentile were recorded. […] Before the operation, and 3 days, and 1, 2, 4, and 8 weeks after the operation, intraocular pressure was measured, and the rats were sacrificed to extract eyes therefrom, which were then subjected to tissue examination and immunechemical staining with respect to Brn-3a and CD11b, and a reverse transcription polymerase chain reaction was used to measure CD11b value in retinal tissue. […]

[4] = test system: SDF-1; assay: Reverse transcription polymerase chain reaction on injured tissue of corneal chemical burn model, SDF-1; format: in vivo, rat; settings: third day and seventh day after keratoconjunctival chemical injury
Protocol: as §1, §2

## angiogenin: recombinant human angiogenin (R&D systems); 14.4 kDa single chain protein of 123 amino acids, a ribonuclease inducing angiogenesis
[1]
  caspase-3 expression compared to the control: less expressed
[2]
  IL-1a expression compared to the control: less expressed
[3]
  CD11b expression in retina: significantly higher
[4]
  SDF-1 expression compared to the control: less expressed
